Experimental data published in US20250099405A1, “COMPOSITIONS, METHODS, AND DEVELOPMENT OF ARID4B INHIBITORS” (University of Kentucky Research Foundation, priority 2022, published 2025).

Columns and labels:
[1] = Plasma stability, incubation with mouse blood plasma, LC-MS; type: in vitro ADME; settings: over the 24 h period, equivalent of 50 mg/kg
Protocol: Representative HE images of liver and spleen from mice treated with vehicle or ARD150. Images from vehicle and the highest doses of ARD150 (125 mg/kg) were shown (B). […] Three biological replicates for each time point.
The potential toxicity of RWR-18 was tested using 9-week-old Balb/c female mice. The mice were injected (i.p.) with vehicle or 10 mg/kg, 25 mg/kg, and 50 mg/kg of RWR-18 (daily for 7 days, 3 mice/group). The body weight was measured daily for 21 days. The liver, spleen, heart, lung, and kidney were collected for macroscopic and histological examination. […] Preliminary plasma kinetic studies were performed. Following the incubation of the equivalent of 50 mg/kg of RWR-18 with blood plasma from mice at 10 min, 30 min, 1 h, 4 h, 16 h, and 24 h, we measured the plasma levels of RWR-18 by LC-MS.

[2] = target: T1, ARID4B binding to H3K4me3 (Homo sapiens, UniProt Q4LE39); experiment: Histone peptide binding assay; settings: His-ARID4B pre-incubated with compound
T1 construct: His; made in house; host or cells: Sf9
T1 sequence (Q4LE39 1-1312): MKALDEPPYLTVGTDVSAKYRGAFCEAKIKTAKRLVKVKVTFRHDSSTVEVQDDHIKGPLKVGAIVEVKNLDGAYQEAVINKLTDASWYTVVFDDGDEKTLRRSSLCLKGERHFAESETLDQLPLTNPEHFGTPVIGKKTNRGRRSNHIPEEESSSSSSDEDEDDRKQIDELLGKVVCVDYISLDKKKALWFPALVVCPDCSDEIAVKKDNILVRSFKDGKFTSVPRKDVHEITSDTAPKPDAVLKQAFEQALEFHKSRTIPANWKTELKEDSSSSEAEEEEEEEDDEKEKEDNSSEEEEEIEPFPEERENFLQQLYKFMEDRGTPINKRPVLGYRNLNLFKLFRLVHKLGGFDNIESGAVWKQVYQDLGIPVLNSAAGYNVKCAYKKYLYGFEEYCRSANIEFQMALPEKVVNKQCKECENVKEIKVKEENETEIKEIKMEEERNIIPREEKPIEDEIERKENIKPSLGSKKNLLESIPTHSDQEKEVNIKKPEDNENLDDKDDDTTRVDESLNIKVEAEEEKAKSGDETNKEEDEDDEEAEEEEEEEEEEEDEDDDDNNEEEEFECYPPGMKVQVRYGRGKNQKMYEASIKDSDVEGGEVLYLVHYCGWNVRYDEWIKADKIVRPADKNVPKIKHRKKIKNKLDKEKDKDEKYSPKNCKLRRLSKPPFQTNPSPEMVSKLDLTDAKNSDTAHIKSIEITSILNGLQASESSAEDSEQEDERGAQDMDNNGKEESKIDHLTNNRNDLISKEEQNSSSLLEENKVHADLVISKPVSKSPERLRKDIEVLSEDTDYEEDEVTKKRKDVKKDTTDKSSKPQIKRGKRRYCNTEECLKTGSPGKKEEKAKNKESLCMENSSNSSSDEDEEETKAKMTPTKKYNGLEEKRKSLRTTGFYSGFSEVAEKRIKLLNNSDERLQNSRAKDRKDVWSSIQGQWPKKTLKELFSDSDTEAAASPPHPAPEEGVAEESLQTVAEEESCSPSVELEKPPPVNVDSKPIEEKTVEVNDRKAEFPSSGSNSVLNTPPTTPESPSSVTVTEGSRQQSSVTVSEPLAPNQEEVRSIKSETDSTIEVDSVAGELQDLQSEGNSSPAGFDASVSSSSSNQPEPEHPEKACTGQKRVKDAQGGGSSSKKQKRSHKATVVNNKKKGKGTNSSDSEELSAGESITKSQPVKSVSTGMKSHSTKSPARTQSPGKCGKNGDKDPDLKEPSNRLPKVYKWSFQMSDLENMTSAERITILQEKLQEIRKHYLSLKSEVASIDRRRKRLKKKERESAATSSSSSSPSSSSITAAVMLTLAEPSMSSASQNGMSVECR
Protocol: His-ARID4B was pre-incubated with RWR-18 as indicated followed by histone peptide binding assays.
Histone peptide binding assays were used to determine that ARID4B binds to which methylated lysine. Full-length His-ARID4B and deletion mutants expressed in Sf9 were purified by Ni-NTA affinity resin (FIG. 20A). To determine which methylated lysine ARID4B binds, full-length His-ARID4B was incubated with biotinylated histone H3 peptides tri-methylated at the K4, K9, K27, K36 or K79. The corresponding unmethylated H3 peptides were used as controls ([…]). […] Next, the ARID4B deletion mutants were used to determine domain(s) of ARID4B responsible for binding to H3K4me3. Deletion of Tudor and chromo domains impaired binding to H3K4me3 (FIG. 20C, compare lanes 3, 4, and 7).
Since RWR-18 targets the chromodomain of ARID4B, which is important for binding to H3K4me3 (FIG. 20), it was tested whether RWR-18 interferes with binding of H3K4me3 using histone peptide binding assays as described above.

SMILES: O=C(COc1ccc(OCc2ccccc2)cc1)NCCCN1CCOCC1 [RWR-18]
- reduction in peak area in mouse blood plasma [1]: ~20%
- binding of ARID4B to H3K4me3 [2]: inhibited
